e = 2'-O-(2-methoxyethyl) (MOE); d = 2'-deoxy (DNA)

For series [1], the system named is mice. Briefly: Vascular leakage, Evans Blue in plasma, captopril-induced (Example 4). As to conditions: HOE-140 30 μg ip, percentage increase or decrease vs Group 1 PBS. It counts as in vivo, mouse. The protocol: Groups 4, 5, 6, 7, 8, and 9 consisted of 8 mice each and were treated with 2.5 mg/kg, 5 mg/kg, 10 mg/kg, 20 mg/kg, 40 mg/kg, or 80 mg/kg (corresponding to 5 mg/kg, 10 mg/kg, 20 mg/kg, 40 mg/kg, 80 mg/kg, or 160 mg/kg per week), respectively, of ISIS 410944 administered subcutaneously twice a week for 3 weeks. At the end of the treatment period, the mice of all the groups were intraperitoneally administered 20 μg of captopril. Groups 4-9 served as the experimental treatment groups for examining the effect of varying doses of ISIS 410944 on captopril-induced vascular permeability.
All the groups were then injected with 30 mg/kg of Evans Blue solution in the tail vein. The mice were sacrificed 30 min after the Evans Blue solution administration and colons, feet, ears, and intestines were harvested. Blood samples were taken through cardiac puncture.
The blood drawn through cardiac puncture was immediately mixed with 3 times the volume of ice-cold ethanol. The solution was centrifuged at 15,000 g for 20 minutes at 4° C. to remove cell debris and precipitated plasma proteins. The ethanol extracts were further purified by ultra-filtration through a 10 kDa MWCO filter. The color intensity of the ethanol extracted plasma solution was then measured at OD620nm. The results are presented in Table 7 as percentage increase or decrease of the OD values of the Group 1 PBS control.

Another series concerns C1-INH mRNA. As to the kind of experiment: Liver RT-PCR of C1-INH mRNA, C1-INH ASO-induced angioedema model (Example 9). It is filed as in vivo, mouse. The conditions noted are these: all groups given ISIS 461756 12.5 mg/kg sc twice a week, test ASO 40 mg/kg sc twice a week 3 weeks, vs PBS control not treated with ISIS 461756. As to the method: (§1) Vascular permeability induced by ISIS 461756, an antisense oligonucleotide which targets murine C1 inhibitor mRNA, increases vascular permeability in mice and replicates the pathology of hereditary angioedema. The effect of ISIS 410944 on this model was evaluated.
(§2) One group of 8 mice was treated with 40 mg/kg ISIS 410944 administered subcutaneously twice a week for 3 weeks (weekly dose of 80 mg/kg). A second group of 8 mice was treated with 40 mg/kg of the control oligonucleotide, ISIS 141923, administered subcutaneously twice a week for 3 weeks (weekly dose of 80 mg/kg). A third group of 8 mice was treated with PBS administered subcutaneously twice a week for 3 weeks. On day 14, all the groups were treated with 12.5 mg/kg ISIS 461756 administered subcutaneously twice a week for 3 weeks (weekly dose of 25 mg/kg). A control group of mice was treated with PBS administered subcutaneously twice a week for 3 weeks but was not administered ISIS 461756.
(§3) At the end of the treatment period, all the groups were injected with 30 mg/kg of Evans Blue solution into the tail vein. The mice were sacrificed 30 min after the Evans Blue solution administration and colons, feet, ears, and intestines were harvested. The liver was also harvested for RNA analysis.
(§4) RNA was isolated from the liver for RT-PCR analysis of C1-INH and Factor 12 mRNAs. […]

The next series has as its system Factor 12 mRNA. As to the kind of experiment: Liver RT-PCR of Factor 12 mRNA, C1-INH ASO-induced angioedema model (Example 9). As to conditions: all groups given ISIS 461756 12.5 mg/kg sc twice a week, test ASO 40 mg/kg sc twice a week 3 weeks, vs PBS control not treated with ISIS 461756. It counts as in vivo, mouse. As to the method: as §1, §2, §3, §4
The test system of series [2] is mice. As to the kind of experiment: Evans Blue vascular permeability, ISIS 461756-induced model (Example 9). It counts as in vivo, mouse. The conditions noted are these: all groups given ISIS 461756 12.5 mg/kg sc twice a week; test ASO 40 mg/kg sc twice a week 3 weeks; vs untreated PBS control. As to the method:
as §1, §2, §3
The harvested tissues from the feet, colon, and intestine were placed in formamide solution overnight to leach out the Evans Blue dye. The formamide solution containing feet tissue was heated to 55° C. and left overnight. The color intensity of the dye-infused formamide solution was then measured at OD600nm. The data is presented in Table 20 as percent increase or reduction compared to the PBS control not treated with ISIS 461756.

The subject of another series is Factor 12. Briefly: Spectrozyme Factor 12a based amidolytic assay for Factor 12 activation in plasma (Example 8). It is filed as in vivo. The conditions noted are these: mouse plasma; for % F12 activation compared to the PBS control: dextran sulfate. The protocol:
The effect of antisense inhibition of kallikrein (KLKB1) mRNA on Factor 12 protein activation was evaluated.
Group 1 consisted of 8 mice and was treated with PBS administered subcutaneously twice a week for 3 weeks. No other treatment was administered to Group 1 which served as a control group to measure Factor 12 activation.
Groups 2, 3, 4, 5, and 6 consisted of 8 mice each and were treated with 2.5 mg/kg, 5 mg/kg, 10 mg/kg, 20 mg/kg, or 40 mg/kg (corresponding to 5 mg/kg, 10 mg/kg, 20 mg/kg, 40 mg/kg, or 80 mg/kg per week), respectively of ISIS 482584 administered subcutaneously twice a week for 3 weeks. Groups 2-6 served as the treatment groups for measuring the effect of ISIS 482584 on Factor 12 activation.
At the end of the treatment period, plasma was harvested from the mice for the Spectrozyme® Factor 12a based amidolytic assay for Factor 12 in plasma.
Plasma (5 μL) was added to 85 μL of PBS with 1 ug/ml dextran sulfate (500 kDa) in a 96 well polypropelene microplate and the solution was incubated for 5 minutes at room temperature. Spectrozyme® FXIIa (10 μL of a 2 mM solution) and 0.2 mM KALLISTOP™ solution was added and the absorbance kinetic was measured at 405 nm. Factor 12 activation was measured in the linear phase of absorbance accumulation. The results are presented in Table 18 as a percentage of Factor 12 activation measured in the PBS control sample.

For the substance HOE-140, the “Percentage of OD620 nm of Evans Blue dye compared to the PBS basal control to measure vascular leakage, Plasma” value in the series on mice [1] turned out to be 70%.

As for “ISIS 141923: control oligonucleotide, a 5-10-5 MOE gapmer with no known murine target, CCTTCCCTGAAGGTTCCTCC; SEQ ID NO: 38 (sugars from the 5' end e5 d10 e5, backbone and methylation of C not given here)”, the “Percent inhibition of mRNA expression, C1-INH mRNA” value in the series with C1-INH mRNA is given as 79%. Further, in the series on Factor 12 mRNA, the “Percent inhibition of mRNA expression, Factor 12 mRNA” value is 0%. Besides, in the series on mice [2], the “Percent change in vascular permeability, Colon” value is reported as 2%; the “Percent change in vascular permeability, Feet” value came out at 80%; the “Percent change in vascular permeability, Intestines” value worked out at 14%.

“ISIS 461756: 5-10-5 MOE gapmer AAAGTGGTTGATACCCTGGG (SEQ ID NO: 37) which targets murine C1 inhibitor mRNA; induces vascular permeability (sugars from the 5' end e5 d10 e5, backbone and methylation of C not given here)”: the “Percent inhibition of mRNA expression, Factor 12 mRNA” value with Factor 12 mRNA turned out to be 0%. For the same substance, in the series on mice [2], the “Percent change in vascular permeability, Colon” value is given as 13%; the “Percent change in vascular permeability, Feet” value was found to be 70%; the “Percent change in vascular permeability, Intestines” value is reported as 27%.

For the substance “ISIS 482584: 5-10-5 MOE gapmer targeting kallikrein (KLKB1), GGCATATTGGTTTTTGGAAT; SEQ ID NO: 39 (sugars from the 5' end e5 d10 e5, backbone and methylation of C not given here)”, the “% F12 activation compared to the PBS control” value is 82% in the series on Factor 12 (5 mg/kg/wk sc 3 weeks); 63% in the series with Factor 12 (10 mg/kg/wk sc 3 weeks); 47% in the series on Factor 12 (20 mg/kg/wk sc 3 weeks); 24% in the series on Factor 12 (40 mg/kg/wk sc 3 weeks); 14% in the series with Factor 12 (80 mg/kg/wk sc 3 weeks). For the same substance, in the series on Factor 12 (5-80 mg/kg/wk sc 3 weeks), the “activation of Factor 12” value is listed as “decreased activation of Factor 12”.

The values are drawn from US9187749B2, “Methods for modulating factor 12 expression” (Isis Pharmaceuticals, Inc., priority 2011, dated 2015).
